Experimental findings from ChEMBL document CHEMBL5725787, “Fused pyrimidine compound or salt thereof” (2017) are described below.

In general, IC50 refers to the midpoint of a concentration-inhibition curve.

The target in this assay is Tyrosine-protein kinase BTK (Homo sapiens, UniProt Q06187). Put plainly: BTK Inhibitory Activity: With regard to the setting of the conditions for a method for measuring the inhibitory activity of a compound against BTK kinase activity in vitro, it is described in the consumable reagent supplies price list for LabChip (registered trademark) series of PerkinElmer, Inc. that FL-PEPTIDE 2 corresponds to a substrate peptide for the measurement of BTK kinase activity. Therefore, FL-PEPTIDE 2 was used as a substrate. The purified recombinant human BTK protein used in the test was purchased from Carna Biosciences, Inc.With regard to the measurement of the inhibitory activity of the compounds, firstly, the compounds of the present invention were diluted stepwise with dimethyl sulfoxide (DMSO). Subsequently, BTK protein, a substrate peptide (final concentration was 1 μM), magnesium chloride (final concentration was 10 mM), ATP (final concentration was 45 μM), and a DMSO solution of the compounds of the present invention (final concentration of DMSO was 5%) were added to a buffer solution for kinase reaction (20 mM HEPES (pH 7.5), 2 mM dithiotheitol, 0.01% Triton X-100), and after the solution was incubated for 40 minutes at 25° C., a kinase reaction was carried out. The reaction was terminated by adding EDTA thereto in order to obtain a final concentration of 30 mM. […].
Tyrosine-protein kinase BTK, sequence (Q06187 whole entry): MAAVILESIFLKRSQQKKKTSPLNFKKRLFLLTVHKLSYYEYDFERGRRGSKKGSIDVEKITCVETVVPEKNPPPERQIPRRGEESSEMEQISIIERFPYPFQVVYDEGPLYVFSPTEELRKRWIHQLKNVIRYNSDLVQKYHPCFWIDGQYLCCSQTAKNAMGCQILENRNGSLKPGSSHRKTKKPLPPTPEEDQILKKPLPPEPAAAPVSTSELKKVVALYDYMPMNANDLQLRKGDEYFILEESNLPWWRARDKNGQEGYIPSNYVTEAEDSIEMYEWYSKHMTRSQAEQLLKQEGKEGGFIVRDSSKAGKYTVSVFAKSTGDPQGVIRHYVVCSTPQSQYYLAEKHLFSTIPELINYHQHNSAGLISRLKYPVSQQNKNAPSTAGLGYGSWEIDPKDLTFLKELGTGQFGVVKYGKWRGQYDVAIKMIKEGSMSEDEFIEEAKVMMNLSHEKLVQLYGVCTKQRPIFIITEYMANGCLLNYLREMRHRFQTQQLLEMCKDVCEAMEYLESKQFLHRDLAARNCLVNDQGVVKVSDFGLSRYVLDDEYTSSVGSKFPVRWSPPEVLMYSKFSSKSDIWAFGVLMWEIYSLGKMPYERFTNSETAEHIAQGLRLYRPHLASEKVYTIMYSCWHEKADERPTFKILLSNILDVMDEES

On to `C=CC(=O)N1CC[C@@H](n2nc(C(=O)Nc3nc4cc(-c5ccccc5)ccc4o3)c3c(N)ncnc32)C1`, for which the IC50 stood at 0.442 nM.
